Test results: ChEMBL document CHEMBL3046789, “Effect of s-metolachlor application timing on cabbage tolerance” (Crop Prot, 2007)

Key:
Format in all cases: organism-based
[1] = test system: Brassica oleracea var. capitata; assay: Phyototoxicity against Brassica oleracea var. capitata (cabbage) assessed as crop injury at 1600 g a.i./ha applied 1 to 2 days after transplantation measured on day 7 post-transplantation; conditions: in vivo, other
[2] = test system: Brassica oleracea var. capitata; assay: Phyototoxicity against Brassica oleracea var. capitata (cabbage) assessed as crop injury at 2400 g a.i./ha applied 1 to 2 days prior to transplantation measured on day 7 post-transplantation; conditions: in vivo, other
[3] = test system: Brassica oleracea var. capitata; assay: Phytotoxicity against Brassica oleracea var. capitata (cabbage) assessed as cabbage head weight at 2400 g a.i/ha applied 1 to 2 days prior to transplantation followed by incorporation into soil (reference value: 2465 g); conditions: in vivo, other
[4] = test system: Brassica oleracea var. capitata; assay: Phyototoxicity against Brassica oleracea var. capitata (cabbage) assessed as crop injury at 1600 g a.i./ha applied 1 to 2 days prior to transplantation measured on day 7 post-transplantation; conditions: in vivo, other
[5] = test system: Brassica oleracea var. capitata; assay: Phytotoxicity against Brassica oleracea var. capitata (cabbage) assessed as cabbage head weight at 800 g a.i/ha applied 1 to 2 days prior to transplantation (reference value: 2465 g); conditions: in vivo
[6] = test system: Brassica oleracea var. capitata; assay: Phytotoxicity against Brassica oleracea var. capitata (cabbage) assessed as cabbage head weight at 800 g a.i/ha applied 1 to 2 days prior to transplantation followed by incorporation into soil (reference value: 2465 g); conditions: in vivo, other
[7] = test system: Brassica oleracea var. capitata; assay: Phyototoxicity against Brassica oleracea var. capitata (cabbage) assessed as crop injury at 1600 g a.i./ha applied 1 to 2 days after transplantation measured on day 28 post-transplantation; conditions: in vivo, other
[8] = test system: Brassica oleracea var. capitata; assay: Phytotoxicity against Brassica oleracea var. capitata (cabbage) assessed as yield at 2400 g a.i./ha applied 1 to 2 days prior to transplantation followed by incorporation into soil (reference value: 25.9 tons/ha); conditions: in vivo, other
[9] = test system: Brassica oleracea var. capitata; assay: Phytotoxicity against Brassica oleracea var. capitata (cabbage) assessed as cabbage head weight at 2400 g a.i/ha applied 1 to 2 days after transplantation (reference value: 2465 g); conditions: in vivo, other
[10] = test system: Brassica oleracea var. capitata; assay: Phyototoxicity against Brassica oleracea var. capitata (cabbage) assessed as crop injury at 2400 g a.i./ha applied 1 to 2 days after transplantation measured on day 28 post-transplantation; conditions: in vivo, other
[11] = test system: Brassica oleracea var. capitata; assay: Phyototoxicity against Brassica oleracea var. capitata (cabbage) assessed as crop injury at 800 g a.i./ha applied 1 to 2 days prior to transplantation followed by incorporation into soil measured on day 7 post-transplantation; conditions: in vivo, other
[12] = test system: Brassica oleracea var. capitata; assay: Phyototoxicity against Brassica oleracea var. capitata (cabbage) assessed as crop injury at 800 g a.i./ha applied 1 to 2 days prior to transplantation measured on day 7 post-transplantation; conditions: in vivo, other
[13] = test system: Brassica oleracea var. capitata; assay: Phyototoxicity against Brassica oleracea var. capitata (cabbage) assessed as crop injury at 800 g a.i./ha applied 1 to 2 days prior to transplantation measured on day 28 post-transplantation; conditions: in vivo, other
[14] = test system: Brassica oleracea var. capitata; assay: Phytotoxicity against Brassica oleracea var. capitata (cabbage) assessed as yield at 800 g a.i./ha applied 1 to 2 days after transplantation (reference value: 25.9 tons/ha); conditions: in vivo, other
[15] = test system: Brassica oleracea var. capitata; assay: Phyototoxicity against Brassica oleracea var. capitata (cabbage) assessed as crop injury at 1600 g a.i./ha applied 1 to 2 days after transplantation measured on day 14 post-transplantation; conditions: in vivo
[16] = test system: Brassica oleracea var. capitata; assay: Phyototoxicity against Brassica oleracea var. capitata (cabbage) assessed as crop injury at 1600 g a.i./ha applied 1 to 2 days prior to transplantation measured on day 14 post-transplantation; conditions: in vivo, other
[17] = test system: Brassica oleracea var. capitata; assay: Phyototoxicity against Brassica oleracea var. capitata (cabbage) assessed as crop injury at 1600 g a.i./ha applied 1 to 2 days prior to transplantation followed by incorporation into soil measured on day 28 post-transplantation; conditions: in vivo, other
[18] = test system: Brassica oleracea var. capitata; assay: Phytotoxicity against Brassica oleracea var. capitata (cabbage) assessed as cabbage head weight at 1600 g a.i/ha applied 1 to 2 days after transplantation (reference value: 2465 g); conditions: in vivo, other
[19] = test system: Brassica oleracea var. capitata; assay: Phyototoxicity against Brassica oleracea var. capitata (cabbage) assessed as crop injury at 800 g a.i./ha applied 1 to 2 days prior to transplantation measured on day 14 post-transplantation; conditions: in vivo, other
[20] = test system: Brassica oleracea var. capitata; assay: Phytotoxicity against Brassica oleracea var. capitata (cabbage) assessed as yield at 2400 g a.i./ha applied 1 to 2 days after transplantation (reference value: 25.9 tons/ha); conditions: in vivo, other
[21] = test system: Brassica oleracea var. capitata; assay: Phytotoxicity against Brassica oleracea var. capitata (cabbage) assessed as cabbage head weight at 1600 g a.i/ha applied 1 to 2 days prior to transplantation followed by incorporation into soil (reference value: 2465 g); conditions: in vivo, other
[22] = test system: Brassica oleracea var. capitata; assay: Phyototoxicity against Brassica oleracea var. capitata (cabbage) assessed as crop injury at 2400 g a.i./ha applied 1 to 2 days prior to transplantation measured on day 28 post-transplantation; conditions: in vivo, other
[23] = test system: Brassica oleracea var. capitata; assay: Phyototoxicity against Brassica oleracea var. capitata (cabbage) assessed as crop injury at 800 g a.i./ha applied 1 to 2 days prior to transplantation followed by incorporation into soil measured on day 28 post-transplantation; conditions: in vivo, other
[24] = test system: Brassica oleracea var. capitata; assay: Phytotoxicity against Brassica oleracea var. capitata (cabbage) assessed as yield at 1600 g a.i./ha applied 1 to 2 days prior to transplantation (reference value: 25.9 tons/ha); conditions: in vivo, other
[25] = test system: Brassica oleracea var. capitata; assay: Phytotoxicity against Brassica oleracea var. capitata (cabbage) assessed as decrease in number of marketable cabbage heads at 800 to 2400 g i.a./ha applied 1 to 2 days prior to transplantation relative to control; conditions: in vivo, other
[26] = test system: Brassica oleracea var. capitata; assay: Phyototoxicity against Brassica oleracea var. capitata (cabbage) assessed as crop injury at 1600 g a.i./ha applied 1 to 2 days prior to transplantation followed by incorporation into soil measured on day 7 post-transplantation; conditions: in vivo, other
[27] = test system: Brassica oleracea var. capitata; assay: Phytotoxicity against Brassica oleracea var. capitata (cabbage) assessed as yield at 1600 g a.i./ha applied 1 to 2 days after transplantation (reference value: 25.9 tons/ha); conditions: in vivo, other
[28] = test system: Brassica oleracea var. capitata; assay: Phytotoxicity against Brassica oleracea var. capitata (cabbage) assessed as yield at 2400 g a.i./ha applied 1 to 2 days prior to transplantation (reference value: 25.9 tons/ha); conditions: in vivo, other
[29] = test system: Brassica oleracea var. capitata; assay: Phyototoxicity against Brassica oleracea var. capitata (cabbage) assessed as crop injury at 800 g a.i./ha applied 1 to 2 days after transplantation measured on day 28 post-transplantation; conditions: in vivo, other
[30] = test system: Brassica oleracea var. capitata; assay: Phytotoxicity against Brassica oleracea var. capitata (cabbage) assessed as cabbage head weight at 1600 g a.i/ha applied 1 to 2 days prior to transplantation (reference value: 2465 g); conditions: in vivo, other
[31] = test system: Brassica oleracea var. capitata; assay: Phytotoxicity against Brassica oleracea var. capitata (cabbage) assessed as decrease in number of marketable cabbage heads at 800 to 2400 g i.a./ha applied 1 to 2 days after transplantation relative to control; conditions: in vivo
[32] = test system: Brassica oleracea var. capitata; assay: Phyototoxicity against Brassica oleracea var. capitata (cabbage) assessed as crop injury at 2400 g a.i./ha applied 1 to 2 days prior to transplantation followed by incorporation into soil measured on day 28 post-transplantation; conditions: in vivo, other
[33] = test system: Brassica oleracea var. capitata; assay: Phyototoxicity against Brassica oleracea var. capitata (cabbage) assessed as crop injury at 2400 g a.i./ha applied 1 to 2 days after transplantation measured on day 14 post-transplantation; conditions: in vivo
[34] = test system: Brassica oleracea var. capitata; assay: Phyototoxicity against Brassica oleracea var. capitata (cabbage) assessed as crop injury at 2400 g a.i./ha applied 1 to 2 days prior to transplantation followed by incorporation into soil measured on day 7 post-transplantation; conditions: in vivo, other
[35] = test system: Brassica oleracea var. capitata; assay: Phyototoxicity against Brassica oleracea var. capitata (cabbage) assessed as crop injury at 2400 g a.i./ha applied 1 to 2 days prior to transplantation followed by incorporation into soil measured on day 14 post-transplantation; conditions: in vivo, other
[36] = test system: Brassica oleracea var. capitata; assay: Phytotoxicity against Brassica oleracea var. capitata (cabbage) assessed as yield at 800 g a.i./ha applied 1 to 2 days prior to transplantation (reference value: 25.9 tons/ha); conditions: in vivo, other
[37] = test system: Brassica oleracea var. capitata; assay: Phytotoxicity against Brassica oleracea var. capitata (cabbage) assessed as yield at 800 g a.i./ha applied 1 to 2 days prior to transplantation followed by incorporation into soil (reference value: 25.9 tons/ha); conditions: in vivo, other
[38] = test system: Brassica oleracea var. capitata; assay: Phytotoxicity against Brassica oleracea var. capitata (cabbage) assessed as cabbage head weight at 2400 g a.i/ha applied 1 to 2 days prior to transplantation (reference value: 2465 g); conditions: in vivo, other
[39] = test system: Brassica oleracea var. capitata; assay: Phyototoxicity against Brassica oleracea var. capitata (cabbage) assessed as crop injury at 1600 g a.i./ha applied 1 to 2 days prior to transplantation measured on day 28 post-transplantation; conditions: in vivo, other
[40] = test system: Brassica oleracea var. capitata; assay: Phyototoxicity against Brassica oleracea var. capitata (cabbage) assessed as crop injury at 800 g a.i./ha applied 1 to 2 days prior to transplantation followed by incorporation into soil measured on day 14 post-transplantation; conditions: in vivo, other
[41] = test system: Brassica oleracea var. capitata; assay: Phyototoxicity against Brassica oleracea var. capitata (cabbage) assessed as crop injury at 1600 g a.i./ha applied 1 to 2 days prior to transplantation followed by incorporation into soil measured on day 14 post-transplantation; conditions: in vivo, other
[42] = test system: Brassica oleracea var. capitata; assay: Phyototoxicity against Brassica oleracea var. capitata (cabbage) assessed as crop injury at 2400 g a.i./ha applied 1 to 2 days prior to transplantation measured on day 14 post-transplantation; conditions: in vivo, other
[43] = test system: Brassica oleracea var. capitata; assay: Phyototoxicity against Brassica oleracea var. capitata (cabbage) assessed as crop injury at 2400 g a.i./ha applied 1 to 2 days after transplantation measured on day 7 post-transplantation; conditions: in vivo, other
[44] = test system: Brassica oleracea var. capitata; assay: Phytotoxicity against Brassica oleracea var. capitata (cabbage) assessed as decrease in number of marketable cabbage heads at 800 to 2400 g i.a./ha applied 1 to 2 days prior to transplantation followed by incorporation into soil relative to control; conditions: in vivo, other
[45] = test system: Brassica oleracea var. capitata; assay: Phytotoxicity against Brassica oleracea var. capitata (cabbage) assessed as cabbage head weight at 800 g a.i/ha applied 1 to 2 days after transplantation (reference value: 2465 g); conditions: in vivo, other
[46] = test system: Brassica oleracea var. capitata; assay: Phyototoxicity against Brassica oleracea var. capitata (cabbage) assessed as crop injury at 800 g a.i./ha applied 1 to 2 days after transplantation measured on day 14 post-transplantation; conditions: in vivo
[47] = test system: Brassica oleracea var. capitata; assay: Phyototoxicity against Brassica oleracea var. capitata (cabbage) assessed as crop injury at 800 g a.i./ha applied 1 to 2 days after transplantation measured on day 7 post-transplantation; conditions: in vivo, other
[48] = test system: Brassica oleracea var. capitata; assay: Phytotoxicity against Brassica oleracea var. capitata (cabbage) assessed as yield at 1600 g a.i./ha applied 1 to 2 days prior to transplantation followed by incorporation into soil (reference value: 25.9 tons/ha); conditions: in vivo, other

SMILES: CCc1cccc(C)c1N(C(=O)CCl)[C@@H](C)COC [S-METOLACHLOR]
- Activity [1]: 2%
- Activity [2]: 3%
- Activity [3]: 2421 g
- Activity [4]: 2%
- Activity [5]: 2386 g
- Activity [6]: 2413 g
- Activity [7]: 0%
- Crop_yield [8]: 25.7 tons/ha
- Activity [9]: 2676 g
- Activity [10]: 0%
- Activity [11]: 2%
- Activity [12]: 2%
- Activity [13]: 0%
- Crop_yield [14]: 24.5 tons/ha
- Activity [15]: 0%
- Activity [16]: 1%
- Activity [17]: 0%
- Activity [18]: 2556 g
- Activity [19]: 0%
- Crop_yield [20]: 27.7 tons/ha
- Activity [21]: 2255 g
- Activity [22]: 0%
- Activity [23]: 0%
- Crop_yield [24]: 27.1 tons/ha
- Activity [25]: Non-toxic
- Activity [26]: 3%
- Crop_yield [27]: 26.4 tons/ha
- Crop_yield [28]: 25.4 tons/ha
- Activity [29]: 0%
- Activity [30]: 2540 g
- Activity [31]: Non-toxic
- Activity [32]: 0%
- Activity [33]: 0%
- Activity [34]: 1%
- Activity [35]: 0%
- Crop_yield [36]: 26.7 tons/ha
- Crop_yield [37]: 26.4 tons/ha
- Activity [38]: 2460 g
- Activity [39]: 0%
- Activity [40]: 0%
- Activity [41]: 0%
- Activity [42]: 0%
- Activity [43]: 0%
- Activity [44]: Non-toxic
- Activity [45]: 2310 g
- Activity [46]: 1%
- Activity [47]: 3%
- Crop_yield [48]: 23.4 tons/ha
